Reference: article PMC7470779 (Acta Pharmacologica Sinica, 2019)

Legend:
human OAT3 [1] = target: T1, human OAT3 (Homo sapiens, UniProt Q8TCC7); assay: TER cellular uptake in hOAT3-HEK293 cells; assay type: in vitro ADME; conditions: TER 20 μmol/L, 20 min, with or without probenecid 200 μmol/L
T1 sequence (Q8TCC7 1-542): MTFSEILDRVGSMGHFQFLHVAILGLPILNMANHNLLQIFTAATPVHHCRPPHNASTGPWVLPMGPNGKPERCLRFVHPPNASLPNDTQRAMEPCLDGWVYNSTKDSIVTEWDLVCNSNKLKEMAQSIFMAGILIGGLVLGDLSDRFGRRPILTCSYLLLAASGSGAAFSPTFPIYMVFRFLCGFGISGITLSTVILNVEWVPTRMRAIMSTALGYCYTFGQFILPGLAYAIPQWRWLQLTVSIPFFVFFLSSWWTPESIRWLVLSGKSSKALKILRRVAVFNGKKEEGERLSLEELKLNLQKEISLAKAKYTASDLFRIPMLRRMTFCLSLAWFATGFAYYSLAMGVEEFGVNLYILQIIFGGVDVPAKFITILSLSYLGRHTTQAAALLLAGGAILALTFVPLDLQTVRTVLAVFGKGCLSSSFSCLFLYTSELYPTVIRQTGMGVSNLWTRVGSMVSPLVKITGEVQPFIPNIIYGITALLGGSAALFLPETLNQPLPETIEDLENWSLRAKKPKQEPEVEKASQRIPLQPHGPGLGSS

human OAT3 [2] = target: T1, human OAT3; assay: Acyclovir uptake in hOAT3-HEK293 cells; assay type: cell-based
human transporter MRP2 [3] = target: T2, human transporter MRP2 (Homo sapiens, UniProt Q92887); assay: Transcellular transport of acyclovir in MRP2-MDCK cells; assay type: in vitro ADME; conditions: acyclovir 10 μmol/L, TER 10 μmol/L, MK571 20 μmol/L
human OAT1 [4] = target: T3, human OAT1 (Homo sapiens, UniProt Q4U2R8); assay: Acyclovir uptake in hOAT1-HEK293 cells; assay type: cell-based
T3 sequence (Q4U2R8 1-550 isoform Q4U2R8-2): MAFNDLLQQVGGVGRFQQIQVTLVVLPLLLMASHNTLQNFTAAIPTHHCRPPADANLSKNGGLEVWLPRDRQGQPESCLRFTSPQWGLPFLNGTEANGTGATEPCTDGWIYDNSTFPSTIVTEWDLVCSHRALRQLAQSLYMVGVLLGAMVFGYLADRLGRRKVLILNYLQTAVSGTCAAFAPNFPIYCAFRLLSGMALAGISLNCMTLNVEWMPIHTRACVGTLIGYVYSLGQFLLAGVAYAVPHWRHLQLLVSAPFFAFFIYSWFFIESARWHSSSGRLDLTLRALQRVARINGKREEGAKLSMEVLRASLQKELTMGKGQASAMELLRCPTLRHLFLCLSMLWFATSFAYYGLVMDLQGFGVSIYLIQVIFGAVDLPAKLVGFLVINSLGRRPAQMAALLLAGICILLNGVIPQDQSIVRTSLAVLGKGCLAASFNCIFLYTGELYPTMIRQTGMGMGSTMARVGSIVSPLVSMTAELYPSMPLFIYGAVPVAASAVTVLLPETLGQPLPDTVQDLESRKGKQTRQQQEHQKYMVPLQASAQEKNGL

[5] = cited from earlier work
human OAT3 [6] = target: T1, human OAT3; assay: Inhibition of 6-CF uptake in hOAT3-HEK293 cells; assay type: cell-based
human transporter MRP2 [7] = target: T2, human transporter MRP2; assay: Accumulation of acyclovir in MRP2-MDCK cells; assay type: cell-based
human OAT1 [8] = target: T3, human OAT1; assay: TER cellular uptake in hOAT1-HEK293 cells; assay type: in vitro ADME; conditions: TER 20 μmol/L, 20 min, with or without probenecid 200 μmol/L
human OAT1 [9] = target: T3, human OAT1; assay: Inhibition of 6-CF uptake in hOAT1-HEK293 cells; assay type: cell-based
in vivo = conditions: Sprague-Dawley, rat, iv, 30 mg/kg, AUC0-∞
[10] = Cumulative urinary excretion of acyclovir in rats; conditions: acyclovir alone 30 mg/kg iv
[11] = Sprague-Dawley, rat, plasma, intraperitoneal

C/C(O)=C(\C#N)C(=O)Nc1ccc(C(F)(F)F)cc1 [TER, teriflunomide]
substrate of OAT3 (human OAT3 [1]): not a substrate
effect on OAT3-mediated acyclovir transport (uptake) (human OAT3 [2]): significantly inhibited
ER value of acyclovir reduced to, in the presence of inhibitor (human transporter MRP2 [3]): 1.46
effect on OAT1-mediated acyclovir transport (uptake) (human OAT1 [4]): significantly inhibited
half-life of TER in the plasma [5]: approximately two weeks
IC50 (human OAT3 [6]): 0.87 µM
mean plasma concentration of TER [11]: 25900 to 37800 ng/mL
time at which peak plasma concentration of TER was reached [11]: 2 h
IC50 (human transporter MRP2 [7]): 4.91 µM
substrate of OAT1 (human OAT1 [8]): not a substrate
IC50 (human OAT1 [9]): 3.39 µM

Cc1oncc1C(=O)Nc1ccc(C(F)(F)F)cc1 [LEF, leflunomide]
effect on OAT3-mediated acyclovir transport (uptake) (human OAT3 [2]): inhibited
effect on OAT1-mediated acyclovir transport (uptake) (human OAT1 [4]): only inhibited OAT3-mediated acyclovir transport
IC50 (human OAT3 [6]): 4.1 µM
inhibitory effect on OAT1 (6-CF uptake) (human OAT1 [9]; hOAT1-HEK293 cells, LEF 1–100 μmol/L): no significant inhibitory effect

CN(C)C(=O)CCSC(SCCC(=O)O)c1cccc(/C=C/c2ccc3ccc(Cl)cc3n2)c1 (centres unmarked) [MK571]
ER value of acyclovir reduced to, in the presence of inhibitor (human transporter MRP2 [3]): 1.46
effect on the plasma concentration and plasma clearance of acyclovir (rats, coadministration): no effect

Nc1nc2c(ncn2COCCO)c(=O)[nH]1 [acyclovir]
AUC(0-inf) (in vivo): 30600 ± 4530 ng·h/mL
AUC(0-inf) (in vivo; rats, acyclovir 30 mg/kg iv, acyclovir alone): 25800 ± 3020 ng·h/mL
24-h cumulative urinary excretion of acyclovir (% of the dose recovered) [10]: 78.4%
